Assay results taken from patent US20130096116A1, “TREATMENT OF PHARMACOLOGICAL-INDUCED HYPOCHLORHYDRIA” (Genentech, Inc., priority 2011, published 2013).
Converted amounts (≈) assume the structure as drawn. Counter-ions that a name gives are not always drawn. Like-named read-outs stand apart in the source and are kept apart here.

What was measured:
gastric pH = experiment: Gastric pH (Heidelberg capsule) after betaine HCl in healthy volunteers with rabeprazole-induced hypochlorhydria; format: in vivo
Experimental: The pH of the stomach was measured over time with a Heidelberg capsule with tether swallowed at t=0. […] Onset of effect of betaine HCl was rapid, with a mean time to pH<3 of 6.3 (±4.3) min, and its duration was adequate but temporary, with a gastric pH<3 and <4 lasting 72.5 (±32.9) and 76.8 (±30.4) min, respectively.
Dasatinib pharmacokinetics was evaluated in healthy volunteer subjects with rabeprazole-induced hypochlorhydria by dosing 20 mg oral rabeprazole twice daily for 4 days. On the morning (a.m.) of study day 5, subjects received an additional 20 mg oral rabeprazole, and the Heidelberg Capsule pH diagnostic system (HC) was used for continuous gastric pH monitoring. When gastric pH remained >4 for at least 15 min, a 1500 mg dose of betaine HCl was given orally, and gastric pH was monitored for 2 h. During part 2 of this study a 3-period crossover study, five of ten subjects each received: (A) 100 mg dasatinib (Control); (B) 100 mg dasatinib after rabeprazole pre-treatment; (C) 100 mg dasatinib, 1500 mg betaine HCl, after rabeprazole pre-treatment. For treatments B+C, 20 mg rabeprazole twice daily was given for 3 days prior to and on the a.m. of each study day. Gastric pH was monitored and DAS plasma concentrations were measured over 22 h (see study schematic below) with dasatinib concentration versus time results shown in FIG. 8A and exposure (AUC) in FIG. 8B.

[1] = Oral exposure of dasatinib and gastric pH in dogs with famotidine, pentagastrin or betaine HCl pretreatment; format: in vivo, beagle dogs
Experimental: Dogs were treated with dasatinib 50 mg tablet (Example 5). Dogs in each group received the following pretreatment: Group 1: no pretreatment (control); Group 2: famotidine 40 mg tablet orally, 3 hours prior to dasatinib; Group 3: pentagastrin by intramuscular injection (6 mg/kg) 30 min before dasatinib administration; Groups 4 and 5: Two betaine HCl 750 mg tablets were administered to the two groups as follows: one betaine HCl tablet orally 5 min before dasatinib and the other 20 min before dasatinib Group 5 was also treated with famotidine 40 mg tablet orally, 3 hours prior to dasatinib. […] Betaine HCl performs as well as pentagastrin, and improves dasatinib/famotidine exposure (AUC, FIG. 5C).
Dasatinib pharmacokinetics was evaluated in dogs with famotidine-induced hypochlorhydria (FIG. 5A). Dasatinib was administered as a 50 mg SPRYCEL® (Bristol-Myers Squibb) tablet. Famotidine 40 mg tablets were administered 3 hrs before dasatinib. Pentagastrin injection was administered intramuscularly 30 min prior before dasatinib administration. Two betaine HCl 750 mg tablets administered at the following times: 1 orally 20 min and 5 min prior to dasatinib administration.
Five groups of naïve, male beagle dogs (n=4 per group) each received a different pretreatment prior to dasatinib treatment.
(§1) Group 1: no pretreatment (control)
Group 2: famotidine 40 mg tablet orally, 3 hours prior to dasatinib
Group 3: pentagastrin by intramuscular injection (6 mg/kg) 30 min before dasatinib administration
Groups 4 and 5: Two betaine HCl 750 mg tablets were administered to the two groups as follows: one betaine HCl tablet orally 5 min before dasatinib and the other 20 min before dasatinib
Group 5: famotidine 40 mg tablet orally, 3 hours prior to dasatinib.

[2] = 100 mg dasatinib after 40 mg omeprazole daily for 4 days; cited from earlier work
[3] = cited from earlier work
[4] = cited from earlier work; remark: listed apart in the source
[5] = cited from earlier work; remark: listed apart in the source
[6] = cited from earlier work; remark: listed apart in the source
[7] = media with enough betaine HCl to lower the pH to 2.4 or below
[8] = Effect of rabeprazole on pharmacokinetics of GDC-0941 in patients with advanced solid tumors; format: in vivo; settings: cancer patients pretreated with rabeprazole 20 mg Days 4-8, Day 8 vs Day 1
[9] = Oral exposure of GDC-0941 in dogs with famotidine, pentagastrin or betaine HCl pretreatment; format: in vivo; settings: male, beagle, dog, plasma, 40 mg, 40 mg oral
Experimental: Group 2 dogs were pretreated with famotidine 40 mg tablet to induce hypochlorhydria and as a negative control. Group 3 dogs were pretreated with pentagastrin by intramuscular injection 6 mg/kg. Pentagastrin is a synthetic peptide which stimulates the secretion of […], pepsin, and intrinsic factor, and lowers the pH of the gut through physiologic stimulation of acid secretion. […] Group 5 dogs were pretreated with famotidine, then treated with betaine HCl, 2×750 mg tablets.
as §1

[10] = pH solubility profile of GDC-0941 (shake flask method); format: physicochemical; settings: 50 mM USP buffer, aqueous buffer, thermodynamic from solid, 48 hours at 37° C.
Experimental: The solubility test was conducted using the shake flask method. […] Each sample was prepared at a volume of approximately 2 mL, with excess solid in each sample. […] Samples were then filtered and concentrations were determined by HPLC under reversed-phase conditions using a C18 column, and elution with a phosphate buffer (pH 6.5), acetonitrile gradient. The injection volume was 5 μL, with a flow rate of 1.2 mL/min and detection at 230 nm.

[11] = single 50-mg dose 10 hours following 40 mg of famotidine

## C[N+](C)(C)CC(=O)O [betaine HCl, Betaine hydrochloride]
Gastric pH; 30 min interval after dosing 1500 mg, N=6
  lowering of gastric pH: 4.54 (±0.46) units
Gastric pH; after 1500 mg betaine HCl
  duration of gastric pH<3: 72.5 (±32.9) min
  duration of gastric pH<4: 76.8 (±30.4) min
  mean time to pH<3: 6.3 (±4.3) min
[1]; dogs treated with famotidine+betaine HCl
  effect on gastric pH: reversal of hypochlorhydria

## Cc1nc(Nc2ncc(C(=O)Nc3c(C)cccc3Cl)s2)cc(N2CCN(CCO)CC2)n1 [dasatinib, Dasatinib]
[2]
  decrease of AUCinf: 43%
  decrease of Cmax: 42%
  reduction of bioavailability: ~40%
[3]; in vivo
  between-subject variability in Ka: exceeded 100%
  between-subject variability in relative bioavailability (FR): 33%
  inter-occasion variability (IOV) within a subject in FR: 44%
[3]; not statistically significant
  decrease of FR with use of PPI: 17%
[4]; Maalox 30 mL administered 2 hours prior to dasatinib
  exposure: unchanged
[4]; dasatinib 50 mg BID, famotidine 40 mg 10 hours prior
  reduction of bioavailability (AUC): 61%
[4]; [11]
  reduction of AUC0-12: ~60%
  reduction of Cmax: ~60%
[5]; pH 2.6, 24° C.
  solubility: ~18000 µg/mL (≈ 36900 µM)
[5]; pH 4.0, 24° C.
  solubility: ~690 µg/mL (≈ 1410 µM)
[5]; pH 4.28, 24° C.
  solubility: 205 µg/mL (≈ 420 µM)
[5]; pH 7.0, 24° C.
  solubility: < 1 µg/mL
[5]; pH range of 4.3 to 7.0 at 24° C.
  solubility of highest commercial dose strength (140 mg) in 250 mL of water: not soluble
[6]; high fat meal
  increase in AUCinf: 14%
[6]; low fat meal
  increase in AUCinf: 21%
[1]; dogs, dasatinib+famotidine without betaine HCl, 50 mg tablet
  dasatinib levels: at or below the limits of assay detection

## CS(=O)(=O)N1CCN(Cc2cc3nc(-c4cccc5[nH]ncc45)nc(N4CCOCC4)c3s2)CC1 [GDC-0941, 4-(2-(1H-indazol-4-yl)-6-((4-(methylsulfonyl)piperazin-1-yl)methyl)thieno[3,2-d]pyrimidin-4-yl)morpholine]
[7]
  drug rapidly dissolved and maintained in solution: greater than 90%
[8]
  decrease of GDC-0941 (AUC, FIG. 7): 40%
[9]; Group 4 (betaine HCl only pretreatment)
  AUC: 7.38 µM·h
[9]; Group 5 (famotidine+betaine HCl), excluding animal D501 (n=3)
  AUC: 7.12 µM·h
[10]; all tested pH values above pH 4.4, read-out: measured solubility
  solubility at 48 h: ~1 µg/mL (≈ 1.95 µM)
[10]; pH 1.0, read-out: solubility
  solubility at 48 h: ~800 µg/mL (≈ 1560 µM)
[10]; pH 3.0, read-out: solubility
  solubility at 48 h: ~8 µg/mL (≈ 15.6 µM)
[10]; pH 7.5, read-out: solubility
  solubility at 48 h: < 1 µg/mL

## NC(N)=Nc1nc(CSCCC(N)=NS(N)(=O)=O)cs1 [famotidine]
[1]; dogs pretreated with famotidine 40 mg
  effect on gastric pH: significant hypochlorhydria (increased gastric pH)
